What is called IC50 is the midpoint of a concentration-inhibition curve.

Here are results for 52 compounds from patent publication US20080146555A1, “Uses of Kinase Inhibitors and Compositions Thereof” (GPC Biotech, Inc, priority 2004, published 2008).

The subject of this assay is HCT-116 cells. Description: Calcein AM viability assay, HCT-116. The class given is cell-based. The settings on record: Homo sapiens, HCT-116, non-protein adjusted, Table 4; read-out: HCT-116 viability IC50. The method, then:
The potency of the subject kinase inhibitors, as measured by loss of cellular viability, was determined with the Calcein AM assay (Molecular Probes). Calcein AM is a substrate of intracellular esterases, which is cleaved only in viable cells to generate a fluorescent product that can be quantified with a fluorescent plate reader. The fluorescent signal is proportional to the number of viable cells, and thus loss of signal in response to the exposure of cells to the subject kinase inhibitors correlates with a loss of viability. This assay not only distinguishes cell cycle arrest, in which cells may still by viable, from loss of viability, and is thus well suited for the evaluation of the subject kinase inhibitors. A compound that is a potent cytotoxic agent may cause significant loss of cell viability in such an assay.
Cellular IC50's were determined in the human colorectal carcinoma cell line, HCT-116, and the normal human fibroblast, IMR90. Protein adjusted IC50's were also determined in HCT-116. Results of such viability assays are presented in Table 2 (HCT-116 (viability/protein adjusted) and IMR-90). IC50's (μM, non-protein adjusted) for the viability assay against HCT-116 cells are shown for further compounds of the invention in Table 4.
HCT-116 or IMR90 cells were recovered from sub-confluent plates by trypsinization and 1,000 or 4,000 cells, respectively, were plated in 24-well dishes and incubated overnight at 37° C., 5% CO2. HCT-116 cells were cultured in RPMI-1640, 10% FCS, and IMR90 cells were cultured in Minimum Essential Medium-alpha, 10% FCS. After overnight incubation to allow adherence, the media was aspirated from each well and replaced with media containing a test compound at a concentration from 0 to 250 nM, spanning a total of 7 doses. The plates were returned to the incubator and cultured for an additional 72 hours (3 days). […] After 72-hours incubation with the test compound, the cells were washed twice with 1×PBS, taking special care to remove all residual buffer.
A 5 μM Calcein AM solution was prepared by dissolving a 50 μg aliquot of Calcein (Molecular Probes catalog #C3100) in 50 μl DMSO. After the Calcein had completely dissolved (10 minutes at room temperature), it was diluted into 10 ml PBS. Calcein/PBS (0.5 ml) was added to each well. The plates were incubated for 75 minutes at 37° C. (protected from light) and the fluorescent signal was read on a fluorescent plate reader (excitation 485/20 and emission 530/25).
With `O=C(Nc1cccc2c1C(=O)c1c-2n[nH]c1-c1ccc(OCCN2CCOCC2)cc1)NN1CCOCC1` [Compound A3], the concentration for half-maximal inhibition (IC50) is less than 100 nM.

Consider `Cc1cc(OCCN2CCOCC2)ccc1-c1[nH]nc2c1C(=O)c1c(NC(=O)NN3CCN(C)CC3)cccc1-2` [Compound A7], for which the 50% inhibitory concentration (IC50) was less than 100 nM. With `Cc1cc(OCCN2CCCCC2)ccc1-c1[nH]nc2c1C(=O)c1c(NC(=O)NN3CCN(C)CC3)cccc1-2` [Compound A8] the figure was less than 100 nM. For the compound `Cc1cc(OCCN2CCCN(C)CC2)ccc1-c1[nH]nc2c1C(=O)c1c(NC(=O)NN3CCN(C)CC3)cccc1-2` [Compound A9], the half-inhibitory concentration (IC50) is less than 100 nM. As for `O=C(Nc1cccc2c1C(=O)c1c-2n[nH]c1-c1ccc(O)c(CN2CCOCC2)c1)NN1CCOCC1` [Compound A10], the IC50 was less than 100 nM. On to `Cc1cc(OCCn2cccn2)ccc1-c1[nH]nc2c1C(=O)c1c(NC(=O)NN3CCN(C)CC3)cccc1-2` [Compound A11], for which the IC50 is less than 100 nM. Regarding `CN1CCN(NC(=O)Nc2cccc3c2C(=O)c2c(-c4ccc(OCCN5CCCC5)cc4F)n[nH]c2-3)CC1` [Compound A12], the IC50 is less than 100 nM. With `CN1CCN(CCOc2ccc(-c3n[nH]c4c3C(=O)c3c(NC(=O)NN5CCN(C)CC5)cccc3-4)c(F)c2)CC1` [Compound A13] the figure was less than 10 nM; with `CN1CCN(NC(=O)Nc2cccc3c2C(=O)c2c(-c4ccc(OCCN5CCCC5)c(F)c4)n[nH]c2-3)CC1` [Compound A14], less than 100 nM; with `CN1CCN(NC(=O)Nc2cccc3c2C(=O)c2c-3n[nH]c2-c2ccc(O)cc2)CC1` [Compound A15], less than 100 nM. With `CC(C)N1CCN(CCOc2ccc(-c3n[nH]c4c3C(=O)c3c(NC(=O)NN5CCOCC5)cccc3-4)c(F)c2)CC1` [Compound A16] the figure was less than 100 nM; with `CN1CCN(NC(=O)Nc2cccc3c2C(=O)c2c-3n[nH]c2-c2ccc(OCCn3cccn3)cc2)CC1` [Compound A17], less than 100 nM; with `Cc1cc(-c2[nH]nc3c2C(=O)c2c(NC(=O)NN4CCN(C)CC4)cccc2-3)ccc1OCCN1CCN(C(C)C)CC1` [Compound A18], less than 100 nM. The figure for `Cc1cc(OCCN2CCN(C(C)C)CC2)ccc1-c1[nH]nc2c1C(=O)c1c(NC(=O)NN3CCN(C)CC3)cccc1-2` [Compound A19] is less than 100 nM; for `CC(C)N1CCN(CCCOc2ccc(-c3[nH]nc4c3C(=O)c3c(NC(=O)NN5CCOCC5)cccc3-4)cc2)CC1` [Compound A20] it is less than 100 nM. In the case of `Cc1cc(OCCCN2CCN(C(C)C)CC2)ccc1-c1[nH]nc2c1C(=O)c1c(NC(=O)NN3CCOCC3)cccc1-2` [Compound A21], the concentration for half-maximal inhibition (IC50) is less than 100 nM.

As to `CC(C)N1CCN(CCOc2ccc(-c3n[nH]c4c3C(=O)c3c(NC(=O)NN5CCOCC5)cccc3-4)cc2F)CC1` [Compound A22], the half-inhibitory concentration (IC50) was less than 100 nM.

As for `CC(C)N1CCN(NC(=O)Nc2cccc3c2C(=O)c2c-3n[nH]c2-c2ccc(OCCN3CCCC3)cc2)CC1` [Compound A23], the IC50 is less than 100 nM. With `Cc1cc(-c2[nH]nc3c2C(=O)c2c(NC(=O)NN4CCOCC4)cccc2-3)ccc1OCCN1CCN(C(C)C)CC1` [Compound A24], the 50% inhibitory concentration (IC50) is less than 10 nM.

For the compound `Cc1cc(-c2[nH]nc3c2C(=O)c2c(NC(=O)NN4CCOCC4)cccc2-3)ccc1OCCN1CCCC1` [Compound A25], the 50% inhibitory concentration (IC50) is less than 10 nM.

As to `CCOC(=O)CN1CCN(NC(=O)Nc2cccc3c2C(=O)c2c-3n[nH]c2-c2ccc(OCCN3CCCC3)cc2)CC1` [Compound A26], the IC50 is less than 10 nM.

On to `O=C(Nc1cccc2c1C(=O)c1c(-c3ccc(OCCN4CCOCC4)c(F)c3)n[nH]c1-2)NN1CCOCC1` [Compound A27], for which the IC50 is less than 100 nM. With `O=C(Nc1cccc2c1C(=O)c1c(-c3ccc(OCCN4CCOCC4)cc3Cl)n[nH]c1-2)NN1CCOCC1` [Compound A28] the figure was less than 100 nM; with `Cc1cc(OCCN2CCCC2)ccc1-c1[nH]nc2c1C(=O)c1c(NC(=O)NN3CCOCC3)cccc1-2` [Compound A29], less than 100 nM. For the compound `COc1cc(-c2[nH]nc3c2C(=O)c2c(NC(=O)NN4CCOCC4)cccc2-3)ccc1OCCN1CCCC1` [Compound A31], the IC50 is less than 100 nM. Consider `CC(C)C(N)C(=O)OCCN1CCN(NC(=O)Nc2cccc3c2C(=O)c2c-3n[nH]c2-c2ccc(OCCN3CCCC3)cc2)CC1` (stereo not shown) [Compound A33], for which the IC50 was less than 100 nM. With `CN(C)C(=O)COc1ccc(-c2[nH]nc3c2C(=O)c2c(NC(=O)NN4CCOCC4)cccc2-3)cc1` [Compound A34] the figure was less than 100 nM. Regarding `Cc1noc(COc2ccc(-c3[nH]nc4c3C(=O)c3c(NC(=O)NN5CCOCC5)cccc3-4)cc2)n1` [Compound A35], the IC50 is less than 100 nM.

Turning to `O=C(Nc1cccc2c1C(=O)c1c-2n[nH]c1-c1ccc(OCC(=O)N2CCOCC2)cc1)NN1CCOCC1` [Compound A36], the half-inhibitory concentration (IC50) is less than 10 nM.

Consider `CC(C)OC(=O)CN1CCN(NC(=O)Nc2cccc3c2C(=O)c2c-3n[nH]c2-c2ccc(OCCN3CCCC3)cc2)CC1` [Compound A40], for which the IC50 is less than 100 nM.

Consider `CN(C)C(=O)CN1CCN(NC(=O)Nc2cccc3c2C(=O)c2c-3n[nH]c2-c2ccc(OCCN3CCCC3)cc2)CC1` [Compound A41], for which the IC50 was less than 100 nM. In the case of `CN1CCN(NC(=O)Nc2cccc3c2C(=O)c2c-3n[nH]c2-c2ccc(OCC(=O)N3CCCC3)cc2)CC1` [Compound A44], the concentration for half-maximal inhibition (IC50) is less than 100 nM.

For `Cc1noc(COc2ccc(-c3[nH]nc4c3C(=O)c3c(NC(=O)NN5CCN(C)CC5)cccc3-4)cc2)n1` [Compound A45], the IC50 was less than 10 nM.

For the compound `O=C(Nc1cccc2c1C(=O)c1c-2n[nH]c1-c1ccc(OCC(=O)N2CCCC2)cc1)NN1CCOCC1` [Compound A46], the IC50 is less than 100 nM. The figure for `O=C(Nc1cccc2c1C(=O)c1c(-c3ccc(CN4CCOCC4)cc3)n[nH]c1-2)NN1CCOCC1` [Compound A47] is less than 10 nM.

As to `CN1CCN(Cc2ccc(-c3n[nH]c4c3C(=O)c3c(NC(=O)NN5CCOCC5)cccc3-4)cc2)CC1` [Compound A49], the concentration for half-maximal inhibition (IC50) was less than 100 nM. As to `O=C(Nc1cccc2c1C(=O)c1c(-c3ccc(CN4CCCC4)cc3)n[nH]c1-2)NN1CCOCC1` [Compound A51], the IC50 is less than 100 nM.

`O=C(Nc1cccc2c1C(=O)c1c-2n[nH]c1-c1ccc(S(=O)(=O)N2CCNCC2)cc1)NN1CCOCC1` [Compound A56]: the IC50 is less than 100 nM.

Take `CC(C)N1CCN(S(=O)(=O)c2ccc(-c3[nH]nc4c3C(=O)c3c(NC(=O)NN5CCOCC5)cccc3-4)cc2)CC1` [Compound A57]: the half-maximal inhibitory concentration (IC50) was less than 100 nM.

With `CCOC(=O)COc1ccc(-c2[nH]nc3c2C(=O)c2c(NC(=O)NN4CCOCC4)cccc2-3)cc1` [Compound A65], the IC50 was less than 100 nM. Regarding `O=C(O)COc1ccc(-c2n[nH]c3c2C(=O)c2c(NC(=O)NN4CCOCC4)cccc2-3)cc1` [Compound A68], the IC50 is less than 1000 nM. `O=C(Nc1cccc2c1C(=O)c1c(-c3ccc(OCc4nnn[nH]4)cc3)n[nH]c1-2)NN1CCOCC1` [Compound A74]: the IC50 was greater than 250 nM.

Turning to `CN1CCN(C(=O)COc2ccc(-c3n[nH]c4c3C(=O)c3c(NC(=O)NN5CCOCC5)cccc3-4)cc2)CC1` [Compound A77], the IC50 was less than 100 nM. For the compound `CCN1CCN(C(=O)COc2ccc(-c3n[nH]c4c3C(=O)c3c(NC(=O)NN5CCOCC5)cccc3-4)cc2)CC1` [Compound A78], the IC50 was less than 10 nM. With `O=C(Nc1cccc2c1C(=O)c1c(-c3ccc(OCC(=O)N4CCN(Cc5ccccc5)CC4)cc3)n[nH]c1-2)NN1CCOCC1` [Compound A79] the figure was less than 100 nM.

`O=C(Nc1cccc2c1C(=O)c1c(-c3ccc(OCC(=O)N4CCN(c5ccccc5)CC4)cc3)n[nH]c1-2)NN1CCOCC1` [Compound A80]: the half-inhibitory concentration (IC50) was less than 100 nM. For the compound `O=C(Nc1cccc2c1C(=O)c1c(-c3ccc(OCC(=O)N4CCN(c5ccccn5)CC4)cc3)n[nH]c1-2)NN1CCOCC1` [Compound A81], the IC50 was less than 100 nM. As to `O=C(Nc1cccc2c1C(=O)c1c(-c3ccc(CN4CCN(c5ccccn5)CC4)cc3)n[nH]c1-2)NN1CCOCC1` [Compound A82], the IC50 was less than 100 nM. As for `O=C(Nc1cccc2c1C(=O)c1c(-c3ccc(CNC(CO)CO)cc3)n[nH]c1-2)NN1CCOCC1` [Compound B1], the IC50 is less than 1000 nM. `O=C(Nc1cccc2c1C(=O)c1c(-c3ccc(CN(CCO)CCO)cc3)n[nH]c1-2)NN1CCOCC1` [Compound B2]: the half-inhibitory concentration (IC50) is less than 100 nM.

Consider `O=C(Nc1cccc2c1C(=O)c1c(-c3ccc(CN4CCN(CCO)CC4)cc3)n[nH]c1-2)NN1CCOCC1` [Compound B3], for which the IC50 was less than 100 nM.

Take `O=C(Nc1cccc2c1C(=O)c1c(-c3ccc(CNCCOCCO)cc3)n[nH]c1-2)NN1CCOCC1` [Compound B4]: the IC50 is less than 100 nM.
